Source: US12098153B2, “Small molecule inhibitors targeting Clostridioides difficile sporulation” (UNIVERSITY OF SOUTH FLORIDA, priority 2021, dated 2024)

Target: T1, SpoVD (CdSpoVD, CDR20291_2544; soluble construct SpovD 38-583) (Clostridioides difficile, UniProt A0A9R0BM53)
T1 construct: pETGSTSUMO vector (NheI/XhoI), E. coli BL21(DE3) pLysS; fusion tag removed with ULP1
Assay: Bacillin (bocillin) inhibition assay, SpoVD
Assay type: biochemical
Conditions: not given
Method: FIG. 2 is a table of IC50 values of select $-lactam antibiotics against SpoVD, their percentage inhibition of sporulation, and the concentration at which they were tested (½ MIC).
FIGS. 4A-4F show chemical structures of DPO sporulation inhibitors, their biochemical inhibition against SpoVD and their in vitro sporulation inhibition, wherein * indicates >50%, ** indicates >90%, and ***>95%.
(§1) Reactions were performed in a 96-well polystyrene plate with a final volume of 60 μl at 37° C. in 1× tris-buffered saline (20 mM Tris, 150 mM NaCl). […] Protein was then diluted and added to the well for a final concentration of 1 μM and incubated for 15 minutes at 37° C. 1 μL of bocillin (BOCILLIN™ FL Penicillin, Sodium Salt, Thermo Fisher Scientific) was added to each well for a final concentration of 20 μM, and incubated for 10 minutes at 37° C. Reactions were killed with 10 μL of 6×SDS loading buffer and pooled or directly loaded onto a 15-well Novex Wedgewell 8% Tris-Glycine Gels and ran at 175 V for ˜1 hour. Gels were then imaged (Biorad) for 6 seconds with the fluorescein blot filter setting and analyzed using ImageJ. All values were normalized to background intensity and divided by the average of three control intensities (no inhibitor) for % inhibition value. Assays were performed in duplicate or triplicate and IC50 values were calculated using a 3-parameter nonlinear regression.
(§2) The coding sequence corresponding to the soluble constructs of CDR20291_1067 (PBP3), CDR20291_0985 (PBP2) and CDR20291_2544 (CdSpoVD) were amplified from C. difficile R20291 genomic DNA The expression vector was modified from pETGST, in which the thrombin cleavage site was replaced by TEV (named pETGSTTEV) or ULP1 (named pETGSTSUMO) cleavage site. The vector was digested and the PCR fragments for each protein was inserted into the multi-clone site accordingly. SpovD 38-583 inserted into the NheI/XhoI site of the pETGSTSUMO vector. Cloned vector was then transformed into BL21(DE3) pLysS Escherichia coli (E. coli). Standard overnight cultures were grown in LB media containing chloramphenicol and kanamycin and used to inoculate 1 L LB cultures.
(§3) Cultures were grown until the optical density (OD600) reached ˜0.7. Protein expression was then induced with 0.5 mM isopropyl-β-d-thiogalactopyranoside (IPTG) overnight at 20° C. Cells were harvested via centrifugation at 4000×g for 10 minutes at 4° C. The cell pellet was suspended with a solution of 20 mM Tris pH 8.0, 200 mM NaCl, 20 mM imidazole, and one dissolved Thermo Scientific™ Pierce Protease Inhibitor Tablets. Cells were lysed with a sonicator using a 10 second sonication/15 second rest cycle for 15 minutes. Cell lysate was centrifuged at 45,000×g for 35 minutes and supernatant was loaded onto a HisTrap affinity column (GE Healthcare). A linear gradient of buffer B (20 mM Tris pH 8.0, 300 mM NaCl, 500 mM imidazole, and 10% glycerol) was applied to elute the recombinant protein which usually occurred at 30% buffer B. These fractions were pooled and buffer exchanged three times into protease buffer (20 mM Tris pH 8.0, 10% glycerol) using an Amicon Ultra centrifugal filter (Sigma-Aldrich). Purified His6-tagged TEV protease was added to all proteins at a 1:20 ratio except for CdSpoVD and incubated overnight at 4° C. Pure His6-tagged ULP1 protease was added to CdSpoVD at 1:20 ratio and incubated overnight at 4° C. The digested protein was re-loaded onto the HisTrap affinity column. Flowthrough was collected, concentrated, and loaded to a HiLoad 16/60 Superdex 75 size exclusion column (GE Healthcare) where it ran at a flow rate of 0.5 ml/min. Peak fractions were combined and purity assessed (>95%) with gel-electrophoresis. The identity of each enzyme was independently characterized with gel-electrophoresis, native-mass spectrometry, bocillin or nitrocefin binding, and/or X-ray crystallography.

T1 sequence (A0A9R0BM53 entry or part of it): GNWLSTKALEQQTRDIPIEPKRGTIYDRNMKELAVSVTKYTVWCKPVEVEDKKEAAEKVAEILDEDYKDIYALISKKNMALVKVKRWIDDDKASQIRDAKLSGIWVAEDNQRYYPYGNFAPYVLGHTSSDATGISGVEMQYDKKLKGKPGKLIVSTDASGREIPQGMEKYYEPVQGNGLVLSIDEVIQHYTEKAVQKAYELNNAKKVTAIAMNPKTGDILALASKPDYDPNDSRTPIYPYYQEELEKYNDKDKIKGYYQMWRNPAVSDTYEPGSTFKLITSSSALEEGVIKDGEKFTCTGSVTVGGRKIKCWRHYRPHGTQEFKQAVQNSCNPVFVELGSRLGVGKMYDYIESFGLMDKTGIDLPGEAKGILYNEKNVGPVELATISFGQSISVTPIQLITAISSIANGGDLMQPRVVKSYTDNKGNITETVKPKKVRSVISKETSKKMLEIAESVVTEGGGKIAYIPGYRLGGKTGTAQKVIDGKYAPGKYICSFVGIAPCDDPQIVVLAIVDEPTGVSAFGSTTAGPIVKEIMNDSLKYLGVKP

Row | SMILES | IC50 [µM]
1 | CC(=O)OCC1=C(C(=O)O)N2C(=O)[C@@H](NC(=O)Cc3cccs3)[C@H]2SC1 [Cefalothin] | 0.27
2 | CC(C)(O/N=C(\C(=O)N[C@@H]1C(=O)N2C(C(=O)[O-])=C(C[n+]3ccccc3)CS[C@H]12)c1csc(N)n1)C(=O)O [Ceftazidime] | 2.47
3 | C[C@H]1[C@H](NC(=O)/C(=N\OC(C)(C)C(=O)O)c2csc(N)n2)C(=O)N1S(=O)(=O)O [Aztreonam] | 1.36
4 | CC1(C)S[C@@H]2[C@H](NC(=O)[C@H](N)c3ccccc3)C(=O)N2[C@H]1C(=O)O [Ampicillin] | 2.54

Same assay, conditions: FIG. 2; 1 μM protein, 15 min preincubation at 37° C., 20 μM bocillin; read-out: SpoVD IC50

Row | SMILES | IC50 [µM]
5 | Nc1nc(/C(=N/O)C(=O)N[C@@H]2C(=O)N3C(C(=O)O)=C(/C=C4\CCN([C@@H]5CCNC5)C4=O)CS[C@H]23)ns1 [Ceftobiprole] | 62.5
6 | CO/N=C(\C(=O)N[C@@H]1C(=O)N2C(C(=O)O)=C(COC(C)=O)CS[C@H]12)c1csc(N)n1 [Cefotaxime] | 7.83
7 | NC(=O)[C@@H]1CC[C@@H]2CN1C(=O)N2OS(=O)(=O)O [Avibactam] | 165
8 | Cc1onc(-c2ccccc2Cl)c1C(=O)N[C@@H]1C(=O)N2[C@@H]1SC(C)(C)[C@@H]2C(=O)O [Cloxacillin] | 6.12
9 | CO[C@@]1(NC(=O)Cc2cccs2)C(=O)N2C(C(=O)O)=C(COC(N)=O)CS[C@@H]21 [Cefoxitin] | 0.94
10 | O=C(Nc1ccccc1)[C@@H]1CC[C@@H]2CN1C(=O)N2OS(=O)(=O)O [Spo6] | 103
11 | O=C(CNC(=O)[C@@H]1CC[C@@H]2CN1C(=O)N2OS(=O)(=O)O)c1ccccc1 [Spo8] | 63.8
12 | O=C(NCc1ccccc1)[C@@H]1CC[C@@H]2CN1C(=O)N2OS(=O)(=O)O [Spo7] | 53.1

Same assay, conditions: FIGS. 4A-4F; 1 μM protein, 15 min preincubation at 37° C., 20 μM bocillin; read-out: SpoVD IC50

Row | SMILES | IC50 [µM]
13 | O=C(Nc1ccccc1)[C@H](NC(=O)[C@@H]1CC[C@@H]2CN1C(=O)N2OS(=O)(=O)O)c1ccccc1 [Spo9] | 13
14 | O=C(Nc1ccccc1)[C@@H](Cc1ccccc1)NC(=O)[C@@H]1CC[C@@H]2CN1C(=O)N2OS(=O)(=O)O [Spo10] | 3.92

Target: T2, PBP3 (CDR20291_1067; soluble construct) (Clostridioides difficile, UniProt A0A9R0CE13)
T2 construct: modified pETGST vector with TEV site, E. coli BL21(DE3) pLysS; tag removed with TEV
T2 sequence (A0A9R0CE13 entry or part of it): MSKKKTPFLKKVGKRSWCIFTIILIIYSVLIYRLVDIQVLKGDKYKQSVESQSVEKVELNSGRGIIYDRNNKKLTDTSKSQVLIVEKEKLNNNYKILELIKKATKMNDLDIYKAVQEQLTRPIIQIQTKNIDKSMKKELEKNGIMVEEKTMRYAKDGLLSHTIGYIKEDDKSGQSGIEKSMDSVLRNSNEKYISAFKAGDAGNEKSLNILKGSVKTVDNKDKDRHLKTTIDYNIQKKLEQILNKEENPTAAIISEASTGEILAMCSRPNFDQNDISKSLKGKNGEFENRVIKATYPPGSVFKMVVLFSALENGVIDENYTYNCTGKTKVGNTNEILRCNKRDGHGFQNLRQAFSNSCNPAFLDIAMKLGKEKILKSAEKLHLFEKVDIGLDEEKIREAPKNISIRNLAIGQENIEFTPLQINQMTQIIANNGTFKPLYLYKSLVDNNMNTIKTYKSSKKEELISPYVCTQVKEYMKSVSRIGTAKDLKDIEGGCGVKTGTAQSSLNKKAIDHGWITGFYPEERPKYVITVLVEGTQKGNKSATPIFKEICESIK
Assay: Bacillin (bocillin) inhibition assay, PBP3
Assay type: biochemical
Conditions: FIGS. 6A-6F; 1 μM protein, 15 min preincubation at 37° C., 20 μM bocillin
Method: FIGS. 6A-6F show the crystal structure of PBP3 and the chemical structures of DBO sporulation inhibitors, wherein * indicates >50%, ** indicates >90%, and ***>95%.
as §1, §2
as §3, with “The identity of each enzyme was independently characterized with gel-electrophoresis, native-mass spectrometry, bocillin or nitrocefin binding, and/or X-ray crystallography.” left out

Row | SMILES | IC50 [µM]
15 | O=C(Nc1ccccc1)[C@H](NC(=O)[C@@H]1CC[C@@H]2CN1C(=O)N2OS(=O)(=O)O)c1ccccc1 [Spo9] | 4.86
16 | O=C(Nc1ccc(-n2cccn2)cc1)[C@@H]1CC[C@@H]2CN1C(=O)N2OS(=O)(=O)O [Spo12] | 0.69
17 | O=C(Nc1cccc2ccccc12)[C@@H]1CC[C@@H]2CN1C(=O)N2OS(=O)(=O)O [Spo11] | 2.24
18 | NC(=O)[C@@H]1CC[C@@H]2CN1C(=O)N2OS(=O)(=O)O [Avibactam] | 5.38
19 | O=C(Nc1ccccc1)[C@@H]1CC[C@@H]2CN1C(=O)N2OS(=O)(=O)O [Spo6] | 2.01
